pIC50: −log10 of the molar value. Like-named read-outs stand apart in the source and are kept apart here.
Key:
[1] = target: RSV polymerase QUAD mutant (Human respiratory syncytial virus A, UniProt P28887, A789V/I796V/L795I/M628L); experiment: Single nucleotide incorporation by recombinant RSV L-P polymerase, QUAD mutant; assay type: biochemical; conditions: recombinant L-P enzymes
[2] = target: T1, wild-type RSV L-P RNA polymerase complex (Human respiratory syncytial virus A, UniProt P28887); assay type: biochemical; conditions: Fig 5A
T1 construct: made in house; host or cells: insect cells

[3] = target: human mitochondrial RNA polymerase (Homo sapiens, UniProt O00411); experiment: DdRp assay with human mitochondrial RNA polymerase, single turnover; assay type: biochemical; conditions: 100 μM of each NTP
IAV polymerase = IAV polymerase (Influenza A virus, UniProt P03431); experiment: IAV polymerase gel-based assay; assay type: biochemical
HCV polymerase = HCV polymerase (Hepatitis C virus genotype 1b, UniProt Q9WMX2); experiment: HCV polymerase inhibition assay; assay type: biochemical
RSV RNP complex = RSV RNP complex (Human respiratory syncytial virus A, UniProt P28887); experiment: biochemical; assay type: biochemical
QUAD RNP complex = QUAD RNP complex (Human respiratory syncytial virus A, UniProt P28887, A789V/I796V/L795I/M628L); assay type: biochemical
PIV-1 polymerase = PIV-1 polymerase (Human respirovirus 1, UniProt Q8QT26); experiment: biochemical; conditions: Parainfluenza virus type-1 polymerase

Chain of human mitochondrial RNA polymerase (O00411 42-1230): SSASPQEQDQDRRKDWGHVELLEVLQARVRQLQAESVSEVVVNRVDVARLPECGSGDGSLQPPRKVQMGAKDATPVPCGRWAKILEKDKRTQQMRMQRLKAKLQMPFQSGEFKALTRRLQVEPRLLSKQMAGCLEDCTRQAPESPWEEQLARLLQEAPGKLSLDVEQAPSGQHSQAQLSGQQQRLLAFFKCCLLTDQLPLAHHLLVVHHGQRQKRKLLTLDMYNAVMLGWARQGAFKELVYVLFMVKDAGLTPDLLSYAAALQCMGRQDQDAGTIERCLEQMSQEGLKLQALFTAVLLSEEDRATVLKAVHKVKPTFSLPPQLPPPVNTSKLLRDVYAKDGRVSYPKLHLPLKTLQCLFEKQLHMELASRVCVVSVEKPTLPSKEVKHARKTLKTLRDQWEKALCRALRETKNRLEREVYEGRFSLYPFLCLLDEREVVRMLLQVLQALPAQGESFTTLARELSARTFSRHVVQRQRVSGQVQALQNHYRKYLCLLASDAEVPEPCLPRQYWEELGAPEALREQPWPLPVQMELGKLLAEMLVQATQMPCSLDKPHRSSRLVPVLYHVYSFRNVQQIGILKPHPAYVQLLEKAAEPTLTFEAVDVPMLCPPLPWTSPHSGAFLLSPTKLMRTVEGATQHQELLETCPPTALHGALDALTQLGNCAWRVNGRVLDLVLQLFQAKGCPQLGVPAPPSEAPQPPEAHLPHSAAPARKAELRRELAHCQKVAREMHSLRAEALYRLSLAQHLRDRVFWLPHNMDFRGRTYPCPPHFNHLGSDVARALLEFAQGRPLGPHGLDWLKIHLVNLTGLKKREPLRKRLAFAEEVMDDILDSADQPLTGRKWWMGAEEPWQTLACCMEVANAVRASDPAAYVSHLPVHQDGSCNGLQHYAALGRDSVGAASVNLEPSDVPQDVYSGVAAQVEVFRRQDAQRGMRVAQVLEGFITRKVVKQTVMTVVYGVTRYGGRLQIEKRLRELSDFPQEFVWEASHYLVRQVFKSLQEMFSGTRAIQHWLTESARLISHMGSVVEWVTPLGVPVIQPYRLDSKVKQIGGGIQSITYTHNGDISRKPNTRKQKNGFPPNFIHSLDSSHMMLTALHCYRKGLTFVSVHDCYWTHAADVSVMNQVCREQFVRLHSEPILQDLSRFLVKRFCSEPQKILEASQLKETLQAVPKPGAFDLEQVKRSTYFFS

Compound: Nc1ccn([C@@H]2O[C@](CCl)(COP(=O)(O)OP(=O)(O)OP(=O)(O)O)[C@@H](O)[C@H]2F)c(=O)n1 [ALS-8112-TP, 2'-Fluoro-4'-Chloromethyl-Cytidine Triphosphate]
- increase in discrimination, QUAD vs WT (resistance level) [1]: 4.6 fold
- substrate and chain termination profile with recombinant RSV polymerase (in words) [2]: both substrates and chain terminators
- recognition as substrate by human mitochondrial RNA polymerase (in words) [3]: not recognized as a substrate
- pIC50 (IAV polymerase; Influenza virus polymerase, based on a single 100 μM concentration): < 4.00
- inhibition at 100 µM (IAV polymerase; at 100 μM): 20.5%
- inhibition of HCV polymerase (in words) (HCV polymerase; Fig 5B): not HCV polymerase
- pIC50 (HCV polymerase; Hepatitis C virus polymerase, read-out: IC50): < 4.48
- pIC50 (HCV polymerase; second symbol of RSV / HCV, read-out: HCV polymerase inhibition class (IC50)): < 5.00
- inhibition of RSV RNP complex (in words) (RSV RNP complex; Fig 5B): efficiently inhibit RSV
- mode of inhibition of RSV RNP complex (RSV RNP complex; NTP competition, 1 or 100 μM NTP, 30 μM inhibitor): competitive inhibitor of cytidine monophosphate (CMP) incorporation
- viral RNA transcription activity inhibited (in words) (RSV RNP complex; crude RNP complex from virus-infected cells): inhibited
- inhibition of RdRp activity of the QUAD RNP complex (QUAD RNP complex): 57%
- loss in inhibition potency compared to the wild-type protein (QUAD RNP complex): 145 fold
- pIC50 (PIV-1 polymerase): 5.64

Source: article PMC4476725 (PLoS Pathogens, 2015)
